According to article PMC10746280, “Bacterial efflux pump modulators prevent bacterial growth in macrophages and under broth conditions that mimic the host environment” (mBio, 2023):
Values joined by “and” are separate entries in the source; they are usually repeats but may differ in a detail not shown here. Identical values can stand only once.

Legend:
[1] = system: S. Typhimurium SL1344 (sifB::gfp) in RAW 264.7 macrophages; assay: SAFIRE macrophage assay: intracellular bacterial load (GFP signal within macrophages); format: cell-based, Salmonella enterica serotype Typhimurium
Description: (§1) In SAFIRE, we used MATLAB software to count the number of macrophages that remain adherent and retain the red fluorescence of MitoTracker, an indicator of voltage across the mitochondrial inner membrane. MATLAB then calculates the signal from bacteria (green fluorescent protein [GFP]) that overlaps with macrophages, as defined by MitoTracker, to estimate bacterial load. […] For example, we observed that the 6-trifluoropyrimidin-2-yl group on the right-hand side of EPM35 is apparently toxic to macrophages. Non-toxic analogs that reduced bacterial load by at least 60% at 5 µM and 25 µM in SAFIRE, as compared with DMSO, progressed and were evaluated in SAFIRE across eight or more concentrations, ranging from 0.001 µM to 50 µM (n = 2). […] Each of the top 13 analogs had at least an eightfold increase in potency and were not toxic for macrophages at 50 µM in the SAFIRE assay (Fig. 1C).
(§2) As previously described ([18]), RAW 264.7 macrophages (between passages 1 and 6) were grown in complete Dulbecco’s modified Eagle’s medium (DMEM) to approximately 70% to 90% confluence, scraped, washed, resuspended, diluted to 5 × 10^4 in 100 µL, and seeded in black, 96-well, glass-bottomed plates (Brooks Life Sciences catalog number MGB096-1-2-LG-L) at 37°C with 5% CO2. Twenty-four hours later, bacteria grown overnight in LB were diluted into 50 µL phosphate buffered saline (PBS) and added to a final concentration of 1 × 10^7 S. Typhimurium SL1344 (sifB::gfp) per milliliter ([78]) for an approximate multiplicity of infection of 30 bacteria per macrophage cell. Forty-five minutes after bacterial addition, gentamicin (Sigma catalog number G1264) was added to a final concentration of 40 µg/mL to inhibit the growth of remaining extracellular bacteria. Two hours after infection, gentamicin-containing medium was removed and replaced with 200 µL fresh DMEM with compound or DMSO (Sigma catalog number 276855) to the stated final concentrations. At 17.5 h after infection, PBS containing MitoTracker Red CMXRos (Life Technologies catalog number M7512), a vital dye for mitochondrial electric potential, was added to a final concentration of 100 nM. At 18 h after infection, 16% paraformaldehyde was added to a final concentration of 4% and incubated at room temperature for 15 min. Cells were washed twice with PBS and stained for 20 min with 1 µM 4′,6-diamidino-2-phenylindole (DAPI), a vital dye for double-stranded DNA, and stored in 90% glycerol in PBS until imaging. Samples were imaged in six fields of view per well using a semiautomated Yokogawa CellVoyager CV1000 confocal scanner system with a 20×, 0.75-numerical aperture (NA) objective. A MATLAB algorithm calculated bacterial accumulation (GFP fluorescence) within macrophages, as defined by DAPI and MitoTracker Red. GFP^+ macrophage area was defined as the number of GFP-positive pixels per macrophage divided by the total number of pixels per macrophage, averaged across all macrophages in the field ([34]).

RAW 264.7 macrophages = assay: SAFIRE macrophage assay: host toxicity (adherent macrophage count, morphology); format: cell-based
Description: as §1, §2

[2] = 5 uM, 'Toxic' given instead of a score
[3] = 25 uM, 'Toxic' given instead of a score
[4] = 5 uM compound, n=1, DMSO solvent control = 98, rifampicin 2 μg/mL = 65
[5] = 25 uM compound, n=1, DMSO solvent control = 98, rifampicin 2 μg/mL = 65
[6] = 5 uM compound, n=1, DMSO solvent control = 100
[7] = 25 uM compound, n=1, DMSO solvent control = 100

Compound	5 uM Avg Antibacterial Score [1, 2]	25 uM Avg Antibacterial Score [1, 3]	5 uM Avg Cell # Score (RAW 264.7 macrophages; 5 uM)	25 uM Avg Cell # Score (RAW 264.7 macrophages; 25 uM)	5 uM Avg Antibacterial Score [1, 4]	25 uM Avg Antibacterial Score [1, 5]	5 uM Avg Cell # Score (RAW 264.7 macrophages; [6])	25 uM Avg Cell # Score (RAW 264.7 macrophages; [7])
COCCN1CCN(CC(O)COc2ccc(Cl)c(Cl)c2)CC1 (stereo not drawn) [CU211]	100	50	120	115	–	–	–	–
OC(COc1ccc(F)c(F)c1)CN1CCC(Nc2nccc(C(F)(F)F)n2)CC1 (stereo not drawn) [CU169]	84	6	106	91	–	–	–	–
N[C@@H]1CCN(CC(O)COc2cc(Cl)cc(Cl)c2)C1 (stereo partly drawn) [CU203]	33	9	98	106	–	–	–	–
OC(COc1cccc(Cl)c1)CN1CCC(Nc2nccc(C(F)(F)F)n2)C1 (stereo not drawn) [CU085]	47	Toxic	92	33	–	–	–	–
COC(=O)c1ccc(OCC(O)CN2CCC(Nc3nccc(C(F)(F)F)n3)CC2)cc1 (stereo not drawn) [CU075]	68	Toxic	86	56	–	–	–	–
NCC1CCN(CC(O)COc2cc(Cl)cc(Cl)c2)CC1 (stereo not drawn) [CU208]	20	Toxic	167	15	–	–	–	–
OC(COc1ccc(-c2ccccc2)cc1)CN1CCC(Nc2nccc(C(F)(F)F)n2)CC1 (stereo not drawn) [CU077]	11	Toxic	35	114	–	–	–	–
O=C(O)c1cn(C2CC2)c2cc(N3CCN(CC(O)COc4ccc(Cl)c(Cl)c4)CC3)c(F)cc2c1=O (stereo not drawn) [CU196]	86	Toxic	103	13	–	–	–	–
CO[C@H]1CCN(CC(O)COc2ccc(Cl)c(Cl)c2)C1 (stereo partly drawn) [CU126]	99	47	81	86	–	–	–	–
CC(C)(C)c1nc(NC(=N)N)sc1Br [EPM30]	92	Toxic	97	66	–	–	–	–
OC(COc1ccccc1Cl)CN1CCC(Nc2nccc(C(F)(F)F)n2)CC1 (stereo not drawn) [CU040]	109	19	84	114	–	–	–	–
OC(COc1ccc(Cl)c(Cl)c1)CN1CCC(Nc2ncccn2)CC1 (stereo not drawn) [CU042]	105	23	77	90	–	–	–	–
OC(COc1ccc(Cl)c(Cl)c1)CN1CCC2(CCO2)CC1 (stereo not drawn) [CU229]	101	83	147	141	–	–	–	–
OC(COc1cc(Cl)cc(Cl)c1)CN1CCCC1 (stereo not drawn) [CU248]	–	–	–	–	93	48	115	108
N[C@H]1CCN(C[C@H](O)COc2ccc(Cl)c(Cl)c2)C1 [CU238]	–	–	–	–	34	12	126	102
OC(COc1cccc2ncccc12)CN1CCC(Nc2nccc(C(F)(F)F)n2)CC1 (stereo not drawn) [CU186]	101	9	121	72	–	–	–	–
Cc1ccc(Cl)c(OCC(O)CN2CCC(Nc3nccc(C(F)(F)F)n3)CC2)c1 (stereo not drawn) [CU148]	48	Toxic	123	39	–	–	–	–
CCc1ccc(OCC(O)CN2CCC(Nc3nccc(C(F)(F)F)n3)CC2)cc1 (stereo not drawn) [CU074]	10	Toxic	71	114	–	–	–	–
OC(COc1ccccc1F)CN1CCC(Nc2nccc(C(F)(F)F)n2)CC1 (stereo not drawn) [CU105]	102	14	79	98	–	–	–	–
OC(COc1cc(Cl)cc(Cl)c1)CN1CCC(n2ccnc2)CC1 (stereo not drawn) [CU234]	–	–	–	–	40	12	134	108
OC(COc1ccc2cc[nH]c2c1)CN1CCC(Nc2nccc(C(F)(F)F)n2)CC1 (stereo not drawn) [CU117]	3.65	Toxic	66	74	–	–	–	–
NCCC1CCN(CC(O)COc2ccc(Cl)c(Cl)c2)CC1 (stereo not drawn) [CU249]	–	–	–	–	17	Toxic	123	56
CCN(CC(O)COc1ccc(Cl)c(Cl)c1)CC1CCOC1 (stereo not drawn) [CU123]	98	28	85	84	–	–	–	–
CC(=O)N(C)C1CCN(CC(O)COc2ccc(Cl)c(Cl)c2)CC1 (stereo not drawn) [CU064]	106	90	86	82	–	–	–	–
CN1CCN(CC(O)COc2ccc(Cl)c(Cl)c2)CC1=O (stereo not drawn) [CU220]	104	105	116	105	–	–	–	–
NC1CCN(CC(COc2ccc(Cl)c(Cl)c2)OCc2ccccc2)CC1 (stereo not drawn) [CU241]	–	–	–	–	30	Toxic	110	6
NC(=O)C1CCN(CC(O)COc2ccc(Cl)c(Cl)c2)C1 (stereo not drawn) [CU065]	106	90	80	87	–	–	–	–
OC(COc1ccc(F)c(F)c1)CN1CCC(Nc2ncccn2)CC1 (stereo not drawn) [CU170]	109	107	100	107	–	–	–	–
NC1CN(CC(O)COc2ccc(Cl)c(Cl)c2)C1 (stereo not drawn) [CU150]	–	–	112 and 118	112 and 143	–	–	–	–
